Laboratory results reported in patent publication US20260022142A1, “MACROCYCLIC IMMUNOMODULATORS” (Bristol-Myers Squibb Company, priority 2022, published 2026).
Numbered stars: 1 amine (or outer) side, 2 acyl side, 3 side chain; on linkers, the order of the positions; unused ones are H or OH. Bridge positions count the residues as written; N and C are the ends. Square brackets hold non-standard residues; d marks the D form. Peptide text beside a SMILES is read from it. * marks the point of attachment. ξ: configuration not given here. Phe(3-CF3) = N[C@@H](Cc1cccc(C(F)(F)F)c1)C(=O)O; Phe(4-COOH) = N[C@@H](Cc1ccc(C(=O)O)cc1)C(=O)O; X9 = O=C([C@H](Cc1cc(F)c(F)cc1F)N[*:1])[*:2]; Bip = N[C@@H](Cc1ccc(-c2ccccc2)cc1)C(=O)O; NH(CH2)14COOH = O=C(O)CCCCCCCCCCCCCCN*; Phe(3-Me) = Cc1cccc(C[C@H](N)C(=O)O)c1; Phe(4-F) = N[C@@H](Cc1ccc(F)cc1)C(=O)O; NH(CH2)12COOH = O=C(O)CCCCCCCCCCCCN*; Val(3-OH) = CC(C)(O)[C@H](N)C(=O)O; hArg = N=C(N)NCCCC[C@H](N)C(=O)O; 4Pal = N[C@@H](Cc1ccncc1)C(=O)O; Cha = N[C@@H](CC1CCCCC1)C(=O)O; Cit = NC(=O)NCCC[C@H](N)C(=O)O; Thr(3ξ) = CC(O)[C@H](N)C(=O)O; Dap(Me) = CNC[C@H](N)C(=O)O; hSer = N[C@@H](CCO)C(=O)O; Carboxymethyl = O=C(O)C*; Orn = NCCC[C@H](N)C(=O)O; Aun = NCCCCCCCCCCC(=O)O; Dab = NCC[C@H](N)C(=O)O; Dap = NC[C@H](N)C(=O)O; AEEA = NCCOCCOCC(=O)O

molecular target: T1, PD-1/PD-L1 interaction (PE-labeled human PD-L1-Ig binding to Jurkat cell line over-expressing human PD-1) (Homo sapiens, UniProt Q15116); experiment: Jurkat-PD-1 Cell Binding High-Content Screening Assay (CBA); type: cell-based; details: Jurkat cell line over-expressing human PD-1; PE-labeled PD-L1-Ig 20 nM final; read-out: Jurkat hPD1-PDL1 IC50
T1 construct: expressed in transfected cells; host or cells: Jurkat
T1 sequence (Q15116 25-288): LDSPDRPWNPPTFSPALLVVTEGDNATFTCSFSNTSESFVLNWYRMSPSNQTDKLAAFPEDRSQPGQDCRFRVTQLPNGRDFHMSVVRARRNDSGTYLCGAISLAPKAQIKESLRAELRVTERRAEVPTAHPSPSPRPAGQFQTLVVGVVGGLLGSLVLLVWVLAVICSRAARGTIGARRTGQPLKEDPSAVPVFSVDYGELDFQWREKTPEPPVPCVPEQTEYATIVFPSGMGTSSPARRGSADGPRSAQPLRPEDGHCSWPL
How it was run: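 Binding of fluorescent PD-L1-Ig (20 nM final) to Jurkat-PD-1 cells was measured by automated imaging after 1 h, following a 2 h compound pre-treatment at 37° C.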

IC50 [nM]	Structure (SMILES)
148	CC[C@H](C)[C@@H]1NC(=O)[C@H](Cc2ccc(-c3ccccc3)cc2)NC(=O)[C@H](C(C)C)NC(=O)[C@H](Cc2cccc(C)c2)NC(=O)[C@H](CC(=O)O)NC(=O)[C@H](Cc2ccc(C(=O)O)cc2)NC(=O)[C@H](Cc2ccncc2)NC(=O)CSC[C@@H](C(=O)NCCOCCOCC(=O)N[C@@H](CN)C(=O)NCCCCCCCCCCC(=O)O)NC(=O)[C@H]([C@@H](C)O)NC(=O)[C@H](C(C)C)NC(=O)[C@H](CC2CCCCC2)NC(=O)[C@H](CCN)NC(=O)[C@@H](CC(C)C)NC(=O)[C@H](CCCN)NC1=O [Compound 1188] ({CH2CO}-[4Pal][Phe(4-COOH)]D[Phe(3-Me)]V[Bip]I[Orn][dL][Dab][Cha]VTC[AEEA][Dap][Aun]-OH; thioether N-14)
57.6	Cc1cccc(C[C@@H]2NC(=O)[C@H](CC(=O)O)NC(=O)[C@H](Cc3ccc(OCC(=O)O)cc3)NC(=O)[C@H](Cc3ccc(F)cc3)NC(=O)CSC[C@@H](C(=O)N[C@@H](CCN)C(=O)NCCOCCOCC(=O)NCCOCCOCC(=O)NCCCCCCCCCCCCC(=O)O)NC(=O)[C@H](CO)NC(=O)[C@H](C(C)(C)O)NC(=O)[C@H](CC3CCCCC3)NC(=O)[C@H](Cc3cnc[nH]3)NC(=O)[C@@H](CC(C)C)NC(=O)[C@H](CCCN)NC(=O)[C@H](Cc3ccc(OCC(=O)O)cc3)NC(=O)[C@H](Cc3ccc(-c4ccccc4)cc3)NC(=O)[C@H](Cc3ccc(OCC(=O)O)cc3)NC2=O)c1 [Compound 3817] ({CH2CO}-[Phe(4-F)]Y(Carboxymethyl)D[Phe(3-Me)]Y(Carboxymethyl)[Bip]Y(Carboxymethyl)[Orn][dL]H[Cha][Val(3-OH)]SC[Dab][AEEA][AEEA]-{NH(CH2)12COOH}; thioether N-14)
212	Cc1cccc(C[C@@H]2NC(=O)[C@H](CC(=O)O)NC(=O)[C@H](Cc3ccc(OCC(=O)O)cc3)NC(=O)[C@H](CCN)NC(=O)CSC[C@@H](C(=O)N[C@@H](CCN)C(=O)NCCOCCOCC(=O)NCCCCCCCCCCCCCCC(=O)O)NC(=O)[C@H](CO)NC(=O)[C@H](C(C)(C)O)NC(=O)[C@H](CC3CCCCC3)NC(=O)[C@H](Cc3c[nH]cn3)NC(=O)[C@@H](CC(C)C)NC(=O)[C@H](CCCN)NC(=O)[C@H](Cc3ccc(OCC(=O)O)cc3)NC(=O)[C@H](Cc3ccc(-c4ccccc4)cc3)NC(=O)[C@H](Cc3ccc(OCC(=O)O)cc3)NC2=O)c1 [Compound 2876] ({CH2CO}-[Dab]Y(Carboxymethyl)D[Phe(3-Me)]Y(Carboxymethyl)[Bip]Y(Carboxymethyl)[Orn][dL]H[Cha][Val(3-OH)]SC[Dab][AEEA]-{NH(CH2)14COOH}; thioether N-14)
29.7	CC(C)C[C@H]1NC(=O)[C@H](CCCN)NC(=O)[C@H](C(C)C)NC(=O)[C@H](Cc2ccc(-c3ccccc3)cc2)NC(=O)[C@H](C(C)C)NC(=O)[C@H](Cc2c[nH]c3ccccc23)NC(=O)[C@H](CC(=O)O)NC(=O)[C@H](Cc2ccc(OCC(=O)O)cc2)NC(=O)[C@H](Cc2ccc(OCC(=O)O)cc2)NC(=O)CSC[C@@H](C(=O)NCCCCCCCCCCC(=O)O)NC(=O)[C@H](CCCN)NC(=O)[C@H](C(C)C)NC(=O)[C@H](CC2CCCCC2)NC(=O)[C@H](CCN)NC1=O [Compound 2607] ({CH2CO}-Y(Carboxymethyl)Y(Carboxymethyl)DWV[Bip]V[Orn][dL][Dab][Cha]V[Orn]C[Aun]-OH; thioether N-14)
8.7	CC(C)C[C@H]1NC(=O)[C@H](CCCN)NC(=O)[C@H](C(C)C)NC(=O)[C@H](Cc2ccc(-c3ccccc3)cc2)NC(=O)[C@H](C(C)C)NC(=O)[C@H](Cc2c[nH]c3ccccc23)NC(=O)[C@H](CC(=O)O)NC(=O)[C@H](Cc2ccc(OCC(=O)O)cc2)NC(=O)[C@H](CCCNC(=N)N)NC(=O)CSC[C@@H](C(=O)N[C@@H](CCCN)C(=O)NCCCCCCCCCCC(=O)O)NC(=O)[C@H](CCO)NC(=O)[C@H](C(C)C)NC(=O)[C@H](CC2CCCCC2)NC(=O)[C@H](CCN)NC1=O [Compound 3339] ({CH2CO}-RY(Carboxymethyl)DWV[Bip]V[Orn][dL][Dab][Cha]V[hSer]C[Orn][Aun]-OH; thioether N-14)
36.7	Cc1cccc(C[C@@H]2NC(=O)[C@H](CC(=O)O)NC(=O)[C@H](Cc3ccc(OCC(=O)O)cc3)NC(=O)[C@H](Cc3ccc(F)cc3)NC(=O)CSC[C@@H](C(=O)N[C@@H](CCN)C(=O)NCCCCCCCCCCC(=O)O)NC(=O)[C@H](CO)NC(=O)[C@H](C(C)(C)O)NC(=O)[C@H](CC3CCCCC3)NC(=O)[C@H](CCN)NC(=O)[C@@H](CC(C)C)NC(=O)[C@H](CCCN)NC(=O)[C@H](Cc3ccc(OCC(=O)O)cc3)NC(=O)[C@H](Cc3ccc(-c4ccccc4)cc3)NC(=O)[C@H](Cc3ccc(OCC(=O)O)cc3)NC2=O)c1 [Compound 2216] ({CH2CO}-[Phe(4-F)]Y(Carboxymethyl)D[Phe(3-Me)]Y(Carboxymethyl)[Bip]Y(Carboxymethyl)[Orn][dL][Dab][Cha][Val(3-OH)]SC[Dab][Aun]-OH; thioether N-14)
141	CC(C)C[C@H]1NC(=O)[C@H](CCCN)NC(=O)[C@H](Cc2ccc(O)cc2)NC(=O)[C@H](Cc2ccc(-c3ccccc3)cc2)NC(=O)[C@H](Cc2ccc(OCC(=O)O)cc2)NC(=O)[C@H](Cc2cc(F)c(F)cc2F)NC(=O)[C@H](CC(=O)O)NC(=O)[C@H](Cc2ccc(OCC(=O)O)cc2)NC(=O)[C@H](CN)NC(=O)CSC[C@@H](C(=O)N[C@@H](CCN)C(=O)NCCOCCOCC(=O)NCCCCCCCCCCC(=O)O)NC(=O)[C@H](CCCN)NC(=O)[C@H](C(C)C)NC(=O)[C@H](CC2CCCCC2)NC(=O)[C@H](CCN)NC1=O [Compound 1224] ({CH2CO}-[Dap]Y(Carboxymethyl)D[X9]Y(Carboxymethyl)[Bip]Y[Orn][dL][Dab][Cha]V[Orn]C[Dab][AEEA][Aun]-OH; thioether N-14)
49.4	CNC[C@@H]1NC(=O)CSC[C@@H](C(=O)N[C@@H](CCN)C(=O)NCCOCCOCC(=O)N[C@@H](CO)C(=O)NCCCCCCCCCCCCCCC(=O)O)NC(=O)[C@H](CCC(=O)O)NC(=O)[C@H](C(C)C)NC(=O)[C@H](CC2CCCCC2)NC(=O)[C@H](CCN)NC(=O)[C@@H](CC(C)C)NC(=O)[C@H](CCCN)NC(=O)[C@H](Cc2ccc(C(=O)O)cc2)NC(=O)[C@H](Cc2ccc(-c3ccccc3)cc2)NC(=O)[C@H](Cc2ccc(C(=O)O)cc2)NC(=O)[C@H](Cc2cccc(C(F)(F)F)c2)NC(=O)[C@H](CC(=O)O)NC(=O)[C@H](Cc2ccc(OCC(=O)O)cc2)NC1=O [Compound 3895] ({CH2CO}-[Dap(Me)]Y(Carboxymethyl)D[Phe(3-CF3)][Phe(4-COOH)][Bip][Phe(4-COOH)][Orn][dL][Dab][Cha]VEC[Dab][AEEA]S-{NH(CH2)14COOH}; thioether N-14)
19.5	CC(=O)NCCCC[C@@H]1NC(=O)[C@H](Cc2ccc(-c3ccccc3)cc2)NC(=O)[C@H](Cc2ccccc2)NC(=O)[C@H](Cc2cccc(C)c2)NC(=O)[C@H](CC(=O)O)NC(=O)[C@H](Cc2ccc(OCC(=O)O)cc2)NC(=O)[C@H](C(C)O)NC(=O)CSC[C@@H](C(=O)N[C@@H](CCN)C(=O)NCCCCCCCCCCC(=O)O)NC(=O)[C@H](C(C)O)NC(=O)[C@H](C(C)C)NC(=O)[C@H](CC2CCCCC2)NC(=O)[C@H](CCN)NC(=O)[C@@H](CC(C)C)NC(=O)[C@H](CCCNC(N)=O)NC1=O (stereo partly drawn) [Compound 3466] ({CH2CO}-[Thr(3ξ)]Y(Carboxymethyl)D[Phe(3-Me)]F[Bip]K(Ac)[Cit][dL][Dab][Cha]V[Thr(3ξ)]C[Dab][Aun]-OH; thioether N-14)
15.1	CC[C@H](C)[C@@H]1NC(=O)[C@H](Cc2ccc(-c3ccccc3)cc2)NC(=O)[C@H](C(C)C)NC(=O)[C@H](Cc2cccc(C)c2)NC(=O)[C@H](CC(=O)O)NC(=O)[C@H](Cc2ccc(C(=O)O)cc2)NC(=O)[C@H](Cc2ccncc2)NC(=O)CSC[C@@H](C(=O)N[C@@H](C)C(=O)N[C@@H](CCC(=O)O)C(=O)NCC(=O)NCCCCCCCCCCC(=O)O)NC(=O)[C@H]([C@@H](C)O)NC(=O)[C@H](C(C)C)NC(=O)[C@H](CC2CCCCC2)NC(=O)[C@H](CCN)NC(=O)[C@@H](CC(C)C)NC(=O)[C@H](CCCN)NC1=O [Compound 1041]
5.2	Cc1cccc(C[C@@H]2NC(=O)[C@H](CC(=O)O)NC(=O)[C@H](Cc3ccc(OCC(=O)O)cc3)NC(=O)[C@H](C(C)O)NC(=O)CSC[C@@H](C(=O)N[C@@H](CCN)C(=O)NCCOCCOCC(=O)NCCCCCCCCCCC(=O)O)NC(=O)[C@H](CCC(=O)O)NC(=O)[C@H](C(C)C)NC(=O)[C@H](CC3CCCCC3)NC(=O)[C@H](CCN)NC(=O)[C@@H](CC(C)C)NC(=O)[C@H](CCCN)NC(=O)[C@H](Cc3ccc(OCC(=O)O)cc3)NC(=O)[C@H](Cc3ccc(-c4ccccc4)cc3)NC(=O)[C@H](Cc3ccc(OCC(=O)O)cc3)NC2=O)c1 (stereo partly drawn) [Compound 3806] ({CH2CO}-[Thr(3ξ)]Y(Carboxymethyl)D[Phe(3-Me)]Y(Carboxymethyl)[Bip]Y(Carboxymethyl)[Orn][dL][Dab][Cha]VEC[Dab][AEEA][Aun]-OH; thioether N-14)
9.6	Cc1cccc(C[C@@H]2NC(=O)[C@H](CC(=O)O)NC(=O)[C@H](Cc3ccc(OCC(=O)O)cc3)NC(=O)[C@H](CCCNC(=N)N)NC(=O)CSC[C@@H](C(=O)N[C@@H](CCCCN)C(=O)NCCCCCCCCCCC(=O)O)NC(=O)[C@H](CCCN)NC(=O)[C@H](C(C)C)NC(=O)[C@H](CC3CCCCC3)NC(=O)[C@H](CCN)NC(=O)[C@@H](CC(C)C)NC(=O)[C@H](CCCN)NC(=O)[C@H](C(C)C)NC(=O)[C@H](Cc3ccc(-c4ccccc4)cc3)NC(=O)[C@H](C(C)C)NC2=O)c1 [Compound 3219] ({CH2CO}-RY(Carboxymethyl)D[Phe(3-Me)]V[Bip]V[Orn][dL][Dab][Cha]V[Orn]CK[Aun]-OH; thioether N-14)
15.4	CC(C)C[C@H]1NC(=O)[C@H](CCCN)NC(=O)[C@H](C(C)C)NC(=O)[C@H](Cc2ccc(-c3ccccc3)cc2)NC(=O)[C@H](C(C)C)NC(=O)[C@H](Cc2c[nH]c3ccccc23)NC(=O)[C@H](CC(=O)O)NC(=O)[C@H](Cc2ccc(OCC(=O)O)cc2)NC(=O)[C@H](CCCCNC(=N)N)NC(=O)CSC[C@@H](C(=O)NCC(=O)NCCOCCOCC(=O)NCCCCCCCCCCCCC(=O)O)NC(=O)[C@H](CO)NC(=O)[C@H](C(C)C)NC(=O)[C@H](CC2CCCCC2)NC(=O)[C@H](CCN)NC1=O [Compound 3043] ({CH2CO}-[hArg]Y(Carboxymethyl)DWV[Bip]V[Orn][dL][Dab][Cha]VSCG[AEEA]-{NH(CH2)12COOH}; thioether N-14)
